Reference: US7842695B2, “Substituted pyrazole compounds” (Merck Patent GmbH, priority 2003, dated 2010)

What was measured:
5 HT2C receptor = target: T1, 5 HT2C receptor (Homo sapiens, UniProt P28335); assay: affinity to the 5 HT2C receptor; assay type: binding
T1 sequence (P28335 33-458): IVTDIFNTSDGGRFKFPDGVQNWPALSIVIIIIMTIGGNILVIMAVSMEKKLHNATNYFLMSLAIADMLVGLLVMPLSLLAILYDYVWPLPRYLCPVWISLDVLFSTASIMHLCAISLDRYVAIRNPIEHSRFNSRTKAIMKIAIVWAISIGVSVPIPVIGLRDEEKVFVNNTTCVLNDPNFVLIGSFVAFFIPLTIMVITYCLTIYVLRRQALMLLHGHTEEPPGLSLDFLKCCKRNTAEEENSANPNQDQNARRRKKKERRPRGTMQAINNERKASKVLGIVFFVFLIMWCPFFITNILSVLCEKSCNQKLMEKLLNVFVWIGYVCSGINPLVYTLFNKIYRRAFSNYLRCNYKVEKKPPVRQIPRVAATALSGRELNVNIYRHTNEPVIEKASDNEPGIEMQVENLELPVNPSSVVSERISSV

5-HT2A receptors = 5-HT2A receptors (UniProt P14842); assay: in-vitro affinity to 5-HT2A receptors, [3H]ketanserine displacement (Example A1); assay type: binding
Description: The 5-HT2A receptors are exposed both to [^3H]ketanserine (a substance known for its affinity to the receptor) and also to the test compound. The decrease in the affinity of [^3H]ketanserine to the receptor is an indication of the affinity of the test substance to the 5-HT2A receptor.

Compound | IC50 (5 HT2C receptor) [nM] | IC50 (5-HT2A receptors) [nM]
COc1cccc(-c2c(CN(C)C)cnn2-c2ccc(-c3ccc(F)cc3)cc2)c1 [Example 592, [1-(4′-Fluorobiphenyl-4-yl)-5-(3-methoxyphenyl)-1H-pyrazol-4-ylmethyl]dimethylamine] | 510 | 20
c1coc(-c2c(CN3CCNCC3)cnn2-c2ccc(-c3ccc4c(c3)OCCO4)cc2)c1 [Example 595, 1-{1-[4-(2,3-Dihydrobenzo-1,4-dioxin-6-yl)phenyl]-5-furan-2-yl-1H-pyrazol-4-ylmethyl}piperazine] | 150 | 22
Cc1ccoc1-c1c(CN2CCC(O)C2)cnn1-c1ccc(-c2ccc(F)cc2)cc1 (centres unmarked) [Example 596, 1-[1-(4′-Fluorobiphenyl-4-yl)-5-(3-methyl-2-furanyl)-1H-pyrazol-4-ylmethyl]pyrrolidin-3-ol] | 1000 | 22
CCN1CCN(Cc2cnn(-c3ccc(-c4ccc5c(c4)OCCO5)cc3)c2-n2cccc2)CC1 [Example 600, 1-{1-[4-(2,3-Dihydrobenzo-1,4-dioxin-6-yl)phenyl]-5-pyrrol-1-yl-1H-pyrazol-4-ylmethyl}-4-ethylpiperazine] | 1000 | 26
CCN(CC)Cc1cnn(-c2ccc(-c3ccc(OC)cc3)cc2)c1-c1ccco1 [Example 601, Diethyl-[5-furan-2-yl-1-(4′-methoxybiphenyl-4-yl)-1H-pyrazol-4-ylmethyl]amine] | 1000 | 26
CCN(CC)Cc1cnn(-c2ccc(-c3ccc4c(c3)OCO4)cc2)c1-c1ccco1 [Example 602, [1-(4-Benzo-1,3-dioxol-5-ylphenyl)-5-furan-2-yl-1H-pyrazol-4-ylmethyl]diethylamine] | 610 | 26
Fc1cccc(-c2ccc(-n3ncc(CN4CCN(C5CCCC5)CC4)c3-c3ccco3)cc2)c1 [Example 605, 1-Cyclopentyl-4-[1-(3′-fluorobiphenyl-4-yl)-5-furan-2-yl-1H-pyrazol-4-ylmethyl]piperazine] | 2940 | 26.8
CCN(CC)Cc1cnn(-c2ccc(-c3cccc(F)c3)cc2)c1-c1ccco1 [Example 606, Diethyl-[1-(3′-fluorobiphenyl-4-yl)-5-furan-2-yl-1H-pyrazol-4-ylmethyl]amine] | 1000 | 27
COc1ccc(-c2c(CN3CCN(CCN(C)C)CC3)cnn2-c2ccc(-c3ccc(F)cc3)cc2)cc1 [Example 607, (2-{4-[1-(4′-Fluorobiphenyl-4-yl)-5-(4-methoxyphenyl)-1H-pyrazol-4-ylmethyl]-1-piperazinyl}ethyl)dimethylamine] | 1000 | 29
CN1CCN(Cc2cnn(-c3ccc(-c4ccsc4)cc3)c2-c2ccccc2)CC1 [Example 610, 1-Methyl-4-[5-phenyl-1-(4-thiophen-3-ylphenyl)-1H-pyrazol-4-ylmethyl]piperazine] | 490 | 31
CCN1CCN(Cc2cnn(-c3ccc(-c4ccc(F)cc4)cc3)c2-n2cccc2)CC1 [Example 613, 1-Ethyl-4-[1-(4′-fluorobiphenyl-4-yl)-5-pyrrol-1-yl-1H-pyrazol-4-ylmethyl]piperazine] | 1000 | 32
OC1CCN(Cc2cnn(-c3ccc(-c4ccc(F)cc4)cn3)c2-c2ccco2)C1 (centres unmarked) [Example 614, 1-{1-[5-(4-Fluorophenyl)pyridin-2-yl]-5-furan-2-yl-1H-pyrazol-4-ylmethyl}pyrrolidin-3-ol] | 1000 | 32
OC1CCN(Cc2cnn(-c3ccc(-c4ccc(F)cc4)cc3)c2-c2cccc(Cl)c2)C1 (centres unmarked) [Example 618, 1-[5-(3-Chlorophenyl)-1-(4′-fluorobiphenyl-4-yl)-1H-pyrazol-4-ylmethyl]pyrrolidin-3-ol] | 1000 | 33
CN1CCN(Cc2cnn(-c3ccc(-c4ccc(F)cc4)cc3)c2-c2cccc(Cl)c2)CC1 [Example 619, 1-[5-(3-Chlorophenyl)-1-(4′-fluorobiphenyl-4-yl)-1H-pyrazol-4-ylmethyl]-4-methylpiperazine] | 1000 | 34
CN1CCN(Cc2cnn(-c3ccc(-c4cc(F)c(OC(F)(F)F)c(F)c4)cc3)c2-c2ccccc2F)CC1 [Example 623, 1-[1-(3′,5′-Difluoro-4′-trifluoromethoxybiphenyl-4-yl)-5-(2-fluorophenyl)-1H-pyrazol-4-ylmethyl]-4-methylpiperazine] | 180 | 35
CN1CCN(Cc2cnn(-c3ccc(-c4cc(F)ccc4F)cc3)c2-c2ccco2)CC1 [Example 624, 1-[1-(2′,5′-Difluorobiphenyl-4-yl)-5-furan-2-yl-1H-pyrazol-4-ylmethyl]-4-methylpiperazine] | 280 | 36

Compound | IC50 (5 HT2C receptor) [nM] | IC50 (5-HT2A receptors) [nM]
Cc1ccc(-c2ccc(-n3ncc(CN4CCN(C)CC4)c3-c3ccccc3F)cc2)cc1F [Example 625, 1-[1-(3′-Fluoro-4′-methylbiphenyl-4-yl)-5-(2-fluorophenyl)-1H-pyrazol-4-ylmethyl]-4-methylpiperazine] | 620 | 36
CN1CCN(Cc2cnn(-c3ccc(-c4ccc(N(C)C)cc4)cc3)c2-c2ccccc2F)CC1 [Example 626, {4′-[5-(2-Fluorophenyl)-4-(4-methylpiperazin-1-ylmethyl)pyrazol-1-yl]biphenyl-4-yl}dimethylamine] | 1000 | 36
CCN(CC)Cc1cnn(-c2ccc(-c3ccc4c(c3)OCCO4)cc2)c1-c1ccco1 [Example 630, {1-[4-(2,3-Dihydrobenzo-1,4-dioxin-6-yl)phenyl]-5-furan-2-yl-1H-pyrazol-4-ylmethyl}diethylamine] | 900 | 38
Fc1ccc(-c2ccc(-n3ncc(CN4CCN(CCN5CCCC5)CC4)c3-c3ccco3)cc2)cc1 [Example 633, 1-[1-(4′-Fluorobiphenyl-4-yl)-5-furan-2-yl-1H-pyrazol-4-ylmethyl]-4-(2-pyrrolidin-1-ylethyl)piperazine] | 1000 | 41
CN1CCN(Cc2cnn(-c3ccc(-c4ccc(Oc5ccccc5)cc4)cc3)c2-c2ccccc2F)CC1 [Example 634, 1-[5-(2-Fluorophenyl)-1-(4′-phenoxybiphenyl-4-yl)-1H-pyrazol-4-ylmethyl]-4-methylpiperazine] | 970 | 41
CN(C)CCN(C)Cc1cnn(-c2ccc(-c3ccc(F)cc3)cc2)c1-c1ccco1 [Example 635, N-[1-(4′-Fluorobiphenyl-4-yl)-5-furan-2-yl-1H-pyrazol-4-ylmethyl]-N,N′,N′-trimethylethane-1,2-diamine] | 1000 | 41
OC1CCN(Cc2cnn(-c3ccc(-c4ccc(F)cc4)cc3)c2-c2ccccc2Cl)C1 (centres unmarked) [Example 636, 1-[5-(2-Chlorophenyl)-1-(4′-fluorobiphenyl-4-yl)-1H-pyrazol-4-ylmethyl]pyrrolidin-3-ol] | 1000 | 42
CN(C)CCN(C)Cc1cnn(-c2ccc(-c3ccc(F)cc3)cc2)c1-c1cccc(Cl)c1 [Example 639, N-[5-(3-Chlorophenyl)-1-(4′-fluorobiphenyl-4-yl)-1H-pyrazol-4-ylmethyl]-N,N′,N′-trimethylethane-1,2-diamine] | 1000 | 43
CN1CCN(C(=O)c2cnn(-c3ccccc3)c2NC(=O)c2ccccc2F)CC1 [Example 640] | 1000 | 44
CN1CCN(Cc2cnn(-c3ccc(-c4cccn4C(=O)OC(C)(C)C)cc3)c2-c2ccccc2F)CC1 [Example 643, tert-Butyl 2-{4-[5-(2-fluorophenyl)-4-(4-methylpiperazin-1-ylmethyl)pyrazol-1-yl]phenyl}pyrrole-1-carboxylate] | 930 | 48
COc1ccc(-c2ccc(-n3ncc(CN4CCN(C)CC4)c3-c3ccccc3F)cc2)cc1OC [Example 644, 1-[1-(3′,4′-Dimethoxybiphenyl-4-yl)-5-(2-fluorophenyl)-1H-pyrazol-4-ylmethyl]-4-methylpiperazine] | 1000 | 49
COc1ccccc1-c1c(CN2CCN(C)CC2)cnn1-c1ccc(-c2ccccc2F)cc1 [Example 647, 1-[1-(2′-Fluorobiphenyl-4-yl)-5-(2-methoxyphenyl)-1H-pyrazol-4-ylmethyl]-4-methylpiperazine] | 840 | 52
CN(C)CCCN(C)Cc1cnn(-c2ccc(-c3ccc(F)cc3)cc2)c1-c1ccco1 [Example 659, N-[1-(4′-Fluorobiphenyl-4-yl)-5-furan-2-yl-1H-pyrazol-4-ylmethyl]-N,N′,N′-trimethylpropane-1,3-diamine] | 810 | 76
COc1ccccc1-c1c(CN2CCN(C)CC2)cnn1-c1ccc(-c2cc(F)ccc2F)cc1 [Example 660, 1-[1-(2′,5′-Difluorobiphenyl-4-yl)-5-(2-methoxyphenyl)-1H-pyrazol-4-ylmethyl]-4-methylpiperazine] | 630 | 77
CN1CCN(Cc2cnn(-c3ccc(-c4ccncc4)cc3)c2-c2ccccc2F)CC1 [Example 661, 1-[5-(2-Fluorophenyl)-1-(4-pyridin-4-ylphenyl)-1H-pyrazol-4-ylmethyl]-4-methylpiperazine] | 1000 | 77
